Test system: KB
Test: Cytotoxicity against human KB cells
Format: functional, cell-based

COc1cc(C(=O)OCC(C)(C)CC2=CC(=O)c3ccccc3C2=O)c(OC)c2ccccc12
IC50: 12.5 µM
